Test results published in US4859682A, “2-Halogenated-8- and 1,8-substituted ergolenes” (Richter Gedeon Vegyeszeti Gyar Rt., priority 1986, dated 1989).
Structures can show the parent of a compound that is named as a salt.

Legend:
[1] = Investigation of the cataleptogenic effect (catalepsy); assay type: in vivo, Hann-Wistar rats (male); details: rats; for ED50 at 5 h: rat, in vivo, po, hourly observed for 5 hours; for Catalepsy (percent): 60 mg/kg p.o.
Experimental: (§1) The investigations were carried out on Hann-Wistar (LATI=a Hungarian firm with the name "Institute for Breeding Laboratory Animals") rats and CFLP (LATI) mice. The compounds to be tested were orally administered in a volume of 5 ml/kg of body-weight (abbreviated: ml/kg) to rats and in a volume of 10 ml/kg to mice 60 minutes before starting the experiment.
(§2) The substances were suspended in a solution of Tween 80 of 0.5% strength and then diluted to the desired concentration with physiological saline solution.
(§3) The results are expressed as percentages or, alternatively the ED50 values together with the 95% fiducial limits are given as calculated by means of the probit analysis [J. T. Litschfield and F. Wilcoxon: J. Pharmacol. 96, 99 (1949)].
2. Investigation of the cataleptogenic effect
The method of G. Stile and H. Launer [Arzneim.-Forsch. 21, 252 (1971)] was used for this test.
Male rats weighing 90 to 110 g (n=6) were treated with different doses of the compounds to be tested, then the number of the animals showing catalepsy was hourly observed for 5 hours.

[2] = H. Watchel et al., Life Sci. 33, 2583; cited from earlier work
dopaminergic system = test: Investigation of the apomorphine hypothermia-reverting effect; assay type: in vivo, Hann-Wistar rats; details: 10 mg/kg p.o., apomorphine 5 mg/kg i.p., rats
Experimental: as §1, §2, §3
4. Investigation of the apomorphine hypothermia-reverting effect
The method of A. Barnett et al. [Arch. Int. Pharmacodyn. Ther. 198, 242 (1972)] was used for this test.
The rectal temperature of rats (n=5) was determined by using an Ellab thermometer before administering the compounds to be tested in a dose of 10 mg/kg. Thereafter, a dose of 5 mg/kg of apomorphine was intraperitoneally given and the temperature of the animals was hourly registered for 3 hours.
The significant apomorphine-antagonizing action (reversion of the hypothermia) of the compounds is a proof of inhibition of the dopaminergic system.

[3] = Investigation of the amphetamine group toxicity; assay type: in vivo, CFLP mice; details: d-amphetamine 21 mg/kg i.p., 24 hours, mice; for Amphetamine group tox. (percent): 30 mg/kg p.o.
Experimental: as §1, §2, §3
3. Investigation of the amphetamine group toxicity
The method of C. D. Proctor et al. [Arch. Int. Pharmacodyn. Ther. 163, 74 (1966)] was used for this test.
The examination was carried out on mice of both sexes weighing 22 to 27 g (n=5). At the 60th minute after administration of the compounds to be tested in a dose of 30 mg/kg, d-amphetamine in a dose of 21 mg/kg was intraperitoneally given to the animals tightly closed together (25 cm^2 /mouse) and the percentage of the perished animals was registered after 24 hours.

[4] = Inhibition of the conditioned avoidance response (CAR inhibition); assay type: in vivo, Hann-Wistar rats (male); details: rats; for ED50: Rattus norvegicus, po, 1 h, p.o., 60 min before test
Experimental: as §1, §2, §3
1. Inhibition of the conditioned avoidance response (CAR inhibition)
The method of D. Bovet et al. (in: Neuropsychopharmacology Vol. 2., p. 142 ed. Elsevier Publishing House, Amsterdam, 1961) was used for this test.
Male rats weighing 140 to 160 g were conditioned for 10 days in an automated six-channel shuttle box (VKI). Each one session consisted of 30 cycles; the time of the partial cycles was 15 seconds for intersignal time, 15 seconds for light stimulus, 10 seconds for light stimulus and footshock (0.8 mA). The selected animals (n=6; selected on the basis of a performance higher than 80% at the 10th day) were treated with a 20 mg/kg dose of the compounds to be tested before the 11th session and their performance (i.e. the mean of the number of the conditioned avoidance responses) was compared to the value obtained for each group at the previous day taken as control value.

[5] = Investigation of the asphyxial anoxia; assay type: in vivo, CFLP mice; details: for ED50: Mus musculus, po, 1 h, survival time longer by 30% than control = protected; for ED50 / Asphyxial anoxia (percent): mice; for Asphyxial anoxia (percent): 50 mg/kg p.o.
Experimental: as §1, §2, §3
5. Investigation of the asphyxial anoxia
The method of C. Caillard et al. [Life Sci. 16, 1607 (1975)] was used for this test.
Mice (n=5) of both sexes weighing 22 to 24 g were starved for 16 hours, then treated with a 50 mg/kg dose of the compounds to be tested. After 60 minutes, the animals were placed in tightly closed glass bottles of 100 ml volume and the survival time was registered.

Compound | ED50 at 5 h [1] | neuroleptic effect (in words) [2] | Apomorphine hypothermia, difference of temperature change vs. apomorphine alone, 60 min (dopaminergic system) | Apomorphine hypothermia, difference of temperature change vs. apomorphine alone, 120 min (dopaminergic system) | ED50 ([3]; Mus musculus, po, read-out: Amphetamine group tox. ED50) | ED50 [4] | ED50 [5] | Amphetamine group tox. (percent) [3] | Asphyxial anoxia (percent) [5] | Catalepsy (percent) [1] | CAR inhibition (percent) ([4]; 20 mg/kg p.o.) | antihypoxic effect (in words) ([5]; mice p.o.)
CCN(CC)C(=O)NC1C=C2c3cccc4[nH]c(Br)c(c34)CC2N(C)C1 (stereo not drawn) [2-Bromolysuride, 2-bromolysuride, reference compound] | 3.3 mg/kg | strong neuroleptic effect | – | – | – | – | – | – | – | – | – | –
CC(=O)OCC1C=C2c3cccc4c3c(c(Cl)n4C(C)=O)CC2N(C)C1 (stereo not drawn) [A, 1-Acetyl-8-acetyloxymethyl-2-chloro-6-methyl-9-ergolene] | 46.5 mg/kg | – | +1.3 °C | +1.3 °C | 19.6 mg/kg | 3.4 mg/kg | 34.8 mg/kg | – | – | – | – | –
CC(=O)OCC1C=C2c3cccc4c3c(c(Cl)n4C=O)CC2N(C)C1 (stereo not drawn) [B, 8-acetyloxymethyl-2-chloro-1-formyl-6-methyl-9-ergolene hydrogen sulfate] | 51.9 mg/kg | – | +2.0 °C | +2.4 °C | – | 3.7 mg/kg | – | 10% | 20% | – | – | –
CN1CC(CCl)C=C2c3cccc4c3c(c(Cl)n4C=O)CC21 (stereo not drawn) [C, 2-chloro-8-chloromethyl-1-formyl-6-methyl-9-ergolene] | – | – | +0.6 °C | +1.2 °C | – | 12.9 mg/kg | – | 0% | 50% | 0% | – | –
CC(=O)OCC1C=C2c3cccc4c3c(c(Br)n4C(C)=O)CC2N(C)C1 (stereo not drawn) [D, 1-acetyl-8-acetyloxymethyl-2-bromo-6-methyl-9-ergolene] | 42.4 mg/kg | – | +0.9 °C | +1.7 °C | – | 4.6 mg/kg | – | 0% | 50% | – | – | –
CN1CC(CO)C=C2c3cccc4c3c(c(Cl)n4C)CC21 (stereo not drawn) [E, 2-chloro-1,6-dimethyl-8-hydroxymethyl-9-ergolene maleate] | – | – | +0.8 °C | +1.8 °C | – | – | 8.6 mg/kg | 0% | – | 0% | 24% | the antihypoxic effect comes into prominence
